Data as given in US10851098B2, “Azole amides and amines as alpha v integrin inhibitors” (BRISTOL-MYERS SQUIBB COMPANY, priority 2016, dated 2020).

Tests used:
human αVβ1 = human αVβ1 (Homo sapiens, UniProt P05556+P06756); test: human αVβ1 HTRF binding assay
Method: (§1) All binding assays used the HTRF (homogeneous time resolved fluorescence) technology from Cisbio International, therefore all assays are described as HTRF binding assays. The assay results for the Examples are listed above together with the characterization data. The HTRF binding assays are established for the following integrins: human αVβ6, human αVβ1, human αVβ3, human αVβ5, and human αVβ8. All assays used the following assay buffer: 20 mM Tris, pH 7.4, 1 mM MgCl2, 1 mM MnCl2, 0.01% Tween 20, and 0.01% BSA. Alternatively, a SPA-based assay was used for evaluation of receptor binding.
(§2) […]

human αVβ6 = target: T1, human αVβ6 (Homo sapiens, UniProt P06756+P18564); test: human αVβ6 HTRF binding assay
T1 construct: purchased R & D systems 3817-AV
How it was run: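 HTRF binding format with biotinylated integrin, FITC-fibronectin and streptavidin-terbium, run in 20 mM Tris pH 7.4, 1 mM MgCl2, 1 mM MnCl2, 0.01% Tween 20, 0.01% BSA. A SPA-based binding assay was an alternative.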

human αVβ5 = human αVβ5 (Homo sapiens, UniProt P06756+P18084); test: human αVβ5 HTRF binding assay
Method: as §1, with “binding. […]” for “binding.”

human αVβ8 = human αVβ8 (Homo sapiens, UniProt P06756+P26012); test: human αVβ8 HTRF binding assay
Method: as §1, with “binding. […]” for “binding.”

human αVβ3 = human αVβ3 (Homo sapiens, UniProt P05106+P06756); test: human αVβ3 HTRF binding assay; settings: read-out: Human αVβ3 IC50
Method: as §1, §2

T1 sequence (P06756 31-992 limits assumed): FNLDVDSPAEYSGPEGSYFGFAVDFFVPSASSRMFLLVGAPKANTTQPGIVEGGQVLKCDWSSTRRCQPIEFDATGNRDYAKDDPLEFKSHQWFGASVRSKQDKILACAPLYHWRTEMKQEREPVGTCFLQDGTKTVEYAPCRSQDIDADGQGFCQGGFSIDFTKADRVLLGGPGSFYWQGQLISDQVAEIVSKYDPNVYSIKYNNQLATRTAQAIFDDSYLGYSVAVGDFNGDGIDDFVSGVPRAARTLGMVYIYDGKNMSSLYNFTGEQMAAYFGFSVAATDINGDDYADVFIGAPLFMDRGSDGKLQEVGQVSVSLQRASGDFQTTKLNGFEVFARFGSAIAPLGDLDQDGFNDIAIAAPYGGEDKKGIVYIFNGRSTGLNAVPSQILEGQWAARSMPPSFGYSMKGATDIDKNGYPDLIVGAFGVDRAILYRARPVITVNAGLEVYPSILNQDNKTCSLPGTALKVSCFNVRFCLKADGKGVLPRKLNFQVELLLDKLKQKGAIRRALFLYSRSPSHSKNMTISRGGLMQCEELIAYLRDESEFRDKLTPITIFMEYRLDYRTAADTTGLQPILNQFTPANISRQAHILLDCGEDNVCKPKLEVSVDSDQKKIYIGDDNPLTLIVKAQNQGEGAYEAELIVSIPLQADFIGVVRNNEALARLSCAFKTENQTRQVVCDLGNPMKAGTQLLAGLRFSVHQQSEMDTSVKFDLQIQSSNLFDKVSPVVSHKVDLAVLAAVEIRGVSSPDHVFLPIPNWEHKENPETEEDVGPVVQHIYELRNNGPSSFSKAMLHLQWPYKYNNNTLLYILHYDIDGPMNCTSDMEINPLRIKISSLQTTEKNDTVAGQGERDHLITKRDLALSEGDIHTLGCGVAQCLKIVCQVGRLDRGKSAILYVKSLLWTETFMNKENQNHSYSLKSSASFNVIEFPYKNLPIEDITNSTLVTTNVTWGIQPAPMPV
T1 sequence (P18564 22-707 limits assumed): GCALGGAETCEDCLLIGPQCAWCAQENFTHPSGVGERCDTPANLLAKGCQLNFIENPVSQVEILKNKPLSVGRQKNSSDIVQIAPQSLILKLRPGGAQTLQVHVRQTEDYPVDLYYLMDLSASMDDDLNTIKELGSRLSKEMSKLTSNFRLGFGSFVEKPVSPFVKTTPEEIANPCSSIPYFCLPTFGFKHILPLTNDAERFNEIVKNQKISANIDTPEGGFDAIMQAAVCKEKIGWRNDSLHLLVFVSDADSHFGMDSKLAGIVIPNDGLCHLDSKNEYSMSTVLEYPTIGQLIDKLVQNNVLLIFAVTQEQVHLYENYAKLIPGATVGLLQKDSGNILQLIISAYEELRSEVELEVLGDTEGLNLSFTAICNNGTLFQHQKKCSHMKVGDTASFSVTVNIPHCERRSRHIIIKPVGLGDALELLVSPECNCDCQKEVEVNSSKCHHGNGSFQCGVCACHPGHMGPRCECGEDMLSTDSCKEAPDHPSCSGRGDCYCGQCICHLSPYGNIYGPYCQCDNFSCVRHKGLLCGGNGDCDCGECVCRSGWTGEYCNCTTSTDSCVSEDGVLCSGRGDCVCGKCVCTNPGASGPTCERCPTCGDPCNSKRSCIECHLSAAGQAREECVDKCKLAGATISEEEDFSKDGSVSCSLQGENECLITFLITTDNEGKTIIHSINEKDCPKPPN
Sequence of human αVβ1 (P06756 31-992 limits assumed): as the sequence (P06756 31-992 limits assumed) above
Sequence of human αVβ1 (P05556 21-728 limits assumed): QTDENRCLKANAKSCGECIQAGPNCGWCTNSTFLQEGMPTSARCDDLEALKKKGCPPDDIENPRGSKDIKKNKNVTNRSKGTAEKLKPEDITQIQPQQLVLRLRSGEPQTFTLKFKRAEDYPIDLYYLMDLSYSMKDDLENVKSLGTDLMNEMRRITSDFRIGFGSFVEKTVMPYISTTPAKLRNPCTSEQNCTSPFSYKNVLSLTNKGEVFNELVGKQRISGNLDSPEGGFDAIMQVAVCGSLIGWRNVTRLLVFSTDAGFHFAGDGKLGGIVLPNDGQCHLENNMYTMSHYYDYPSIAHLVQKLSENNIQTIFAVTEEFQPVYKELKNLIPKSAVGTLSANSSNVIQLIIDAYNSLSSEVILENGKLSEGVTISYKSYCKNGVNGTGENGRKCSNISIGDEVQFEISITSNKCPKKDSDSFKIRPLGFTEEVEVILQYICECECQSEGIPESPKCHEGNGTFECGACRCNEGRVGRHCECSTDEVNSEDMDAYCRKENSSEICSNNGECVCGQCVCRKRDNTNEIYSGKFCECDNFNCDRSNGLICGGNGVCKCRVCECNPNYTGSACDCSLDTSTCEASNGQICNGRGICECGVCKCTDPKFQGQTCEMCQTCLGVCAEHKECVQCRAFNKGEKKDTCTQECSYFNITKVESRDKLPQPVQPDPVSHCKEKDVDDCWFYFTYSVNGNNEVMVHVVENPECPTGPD
Sequence of human αVβ3 (P06756 31-992 limits assumed): as the sequence (P06756 31-992 limits assumed) above
Sequence of human αVβ3 (P05106 27-718 limits assumed): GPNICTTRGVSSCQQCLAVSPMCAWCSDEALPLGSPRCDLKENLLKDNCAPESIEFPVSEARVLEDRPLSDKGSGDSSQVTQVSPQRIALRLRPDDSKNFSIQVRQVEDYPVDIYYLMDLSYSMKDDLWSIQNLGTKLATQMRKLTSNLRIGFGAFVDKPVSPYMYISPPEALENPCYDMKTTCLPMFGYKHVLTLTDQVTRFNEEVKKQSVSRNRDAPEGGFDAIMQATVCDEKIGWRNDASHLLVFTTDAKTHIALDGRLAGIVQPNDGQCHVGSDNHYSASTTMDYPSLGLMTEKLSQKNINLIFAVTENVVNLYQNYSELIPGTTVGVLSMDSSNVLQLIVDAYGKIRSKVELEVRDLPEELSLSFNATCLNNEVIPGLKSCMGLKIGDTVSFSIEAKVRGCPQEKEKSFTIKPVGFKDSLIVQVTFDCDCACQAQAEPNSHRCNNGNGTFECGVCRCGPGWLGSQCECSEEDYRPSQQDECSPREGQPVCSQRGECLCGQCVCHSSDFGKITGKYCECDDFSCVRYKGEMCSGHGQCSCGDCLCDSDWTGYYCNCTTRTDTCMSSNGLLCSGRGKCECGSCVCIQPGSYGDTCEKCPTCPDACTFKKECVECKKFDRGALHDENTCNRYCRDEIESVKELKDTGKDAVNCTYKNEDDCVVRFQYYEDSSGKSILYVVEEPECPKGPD
Sequence of human αVβ8 (P06756 31-992 limits assumed): as the sequence (P06756 31-992 limits assumed) above
Sequence of human αVβ8 (P26012 43-684 limits assumed): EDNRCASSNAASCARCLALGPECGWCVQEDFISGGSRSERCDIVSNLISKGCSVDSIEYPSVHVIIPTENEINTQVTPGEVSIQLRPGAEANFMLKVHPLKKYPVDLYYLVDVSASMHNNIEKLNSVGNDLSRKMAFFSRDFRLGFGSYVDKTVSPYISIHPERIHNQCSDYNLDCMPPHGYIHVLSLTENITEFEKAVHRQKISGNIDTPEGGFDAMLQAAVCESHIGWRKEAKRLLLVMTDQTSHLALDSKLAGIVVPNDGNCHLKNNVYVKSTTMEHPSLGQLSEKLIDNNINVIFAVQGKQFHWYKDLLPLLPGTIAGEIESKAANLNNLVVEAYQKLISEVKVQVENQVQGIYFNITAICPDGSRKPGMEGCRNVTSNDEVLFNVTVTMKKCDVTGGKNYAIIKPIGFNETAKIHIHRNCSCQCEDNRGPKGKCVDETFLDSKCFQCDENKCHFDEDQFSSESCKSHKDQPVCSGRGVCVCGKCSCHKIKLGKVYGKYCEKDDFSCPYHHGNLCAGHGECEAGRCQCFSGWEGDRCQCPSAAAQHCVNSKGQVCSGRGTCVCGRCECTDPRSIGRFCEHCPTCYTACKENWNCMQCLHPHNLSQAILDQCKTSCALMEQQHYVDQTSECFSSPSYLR
Sequence of human αVβ5 (P06756 31-992 limits assumed): as the sequence (P06756 31-992 limits assumed) above
Sequence of human αVβ5 (P18084 24-719 limits assumed): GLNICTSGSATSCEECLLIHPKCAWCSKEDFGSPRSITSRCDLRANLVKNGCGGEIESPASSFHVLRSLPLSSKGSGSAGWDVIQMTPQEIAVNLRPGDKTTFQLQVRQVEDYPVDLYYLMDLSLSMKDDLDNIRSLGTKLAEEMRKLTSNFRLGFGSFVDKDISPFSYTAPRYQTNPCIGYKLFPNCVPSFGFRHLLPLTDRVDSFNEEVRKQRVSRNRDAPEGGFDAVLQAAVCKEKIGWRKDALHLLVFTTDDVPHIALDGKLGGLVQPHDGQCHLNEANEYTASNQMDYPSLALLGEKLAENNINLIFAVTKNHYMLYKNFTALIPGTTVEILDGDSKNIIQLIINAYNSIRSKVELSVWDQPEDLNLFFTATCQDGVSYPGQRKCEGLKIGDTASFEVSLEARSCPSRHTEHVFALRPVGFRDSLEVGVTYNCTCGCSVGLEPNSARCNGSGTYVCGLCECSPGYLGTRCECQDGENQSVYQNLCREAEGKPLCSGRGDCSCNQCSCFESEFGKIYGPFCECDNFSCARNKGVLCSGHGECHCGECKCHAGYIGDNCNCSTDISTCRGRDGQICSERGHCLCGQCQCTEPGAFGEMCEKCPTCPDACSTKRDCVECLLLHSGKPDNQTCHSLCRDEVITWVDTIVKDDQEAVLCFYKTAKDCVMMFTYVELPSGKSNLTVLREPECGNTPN

IC50 (human αVβ1) [nM]	IC50 (human αVβ6) [nM]	IC50 (human αVβ5) [nM]	IC50 (human αVβ8) [nM]	IC50 (human αVβ3) [nM]	SMILES
6.3	0.5	0.2	14	1.9	Cc1cc(C)c(S(=O)(=O)N[C@@H](CNC(=O)c2cnn(CCc3ccc4c(n3)NCCC4)c2)C(=O)O)c(C)c1 [Example 10, (S)-3-(1-(2-(5,6,7,8-Tetrahydro-1,8-naphthyridin-2-yl)ethyl)-1H-pyrazole-4-carboxamido)-2-((2,4,6-trimethylphenyl)sulfonamido)propanoic acid]
46	0.8	1.1	63	6.4	Cc1cc(C)c(S(=O)(=O)N[C@@H](CNC(=O)c2cn(CCc3ccc4c(n3)NCCC4)nn2)C(=O)O)c(C)c1 [Example 111]
45	1	0.4	115	2	Cc1cc(C)c(S(=O)(=O)N[C@@H](CNC(=O)c2ccn(CCc3ccc4c(n3)NCCC4)n2)C(=O)O)c(C)c1 [Example 112]
111	1.3	0.3	57	3	Cc1cc(C)c(S(=O)(=O)N[C@@H](CNC(=O)c2cnn(CCc3ccc4c(n3)NCCC4)n2)C(=O)O)c(C)c1 [Example 113]
6.3	0.5	0.2	31	1.5	Cc1cc(C)c(S(=O)(=O)N[C@@H](CNC(=O)c2ccn(CCc3ccc4c(n3)NCCC4)c2)C(=O)O)c(C)c1 [Example 119]
77	2.3	0.3	246	1.6	O=C(N[C@H](CNC(=O)c1cn(CCc2ccc3c(n2)NCCC3)cn1)C(=O)O)OCc1ccccc1 [Example 121]
126	2	902	152	2.1	Cc1cc(C)c(S(=O)(=O)N[C@@H](CNC(=O)c2ncn(CCc3ccc4c(n3)NCCC4)n2)C(=O)O)c(C)c1 [Example 123]

SMILES	IC50 (human αVβ1) [nM]	IC50 (human αVβ6) [nM]	IC50 (human αVβ5) [nM]	IC50 (human αVβ8) [nM]	IC50 (human αVβ3) [nM]
CCCCOC(=O)N[C@@H](CNC(=O)c1cnn(CCc2ccc3c(n2)NCCC3)c1)C(=O)O [Example 20, (S)-2-((Butoxycarbonyl)amino)-3-(1-(2-(5,6,7,8-tetrahydro-1,8-naphthyridin-2-yl)ethyl)-1H-pyrazole-4-carboxamido)propanoic acid]	27	1.1	0.2	86	1.8
